Read-outs that look alike come from different tables or passages of the source.

Ten compounds from patent US20250136619A1, “HETEROBIFUNCTIONAL COMPOUNDS AND THEIR USE IN TREATING DISEASE” (HALDA THERAPEUTICS OPCO, INC., priority 2021, published 2025) can be followed below.

The target in one assay is mTOR (Homo sapiens (Human), UniProt P42345). The experiment in a line: KdELECT assay for binding affinity to mTOR. As to the method:
(§1) Compounds were tested using a KdELECT assay. Kinase-tagged T7 phage strains were prepared in an E. coli host derived from the BL21 strain. E. coli were grown to log-phase and infected with T7 phage and incubated with shaking at 32° C. until lysis. The lysates were centrifuged and filtered to remove cell debris. The remaining kinases were produced in HEK-293 cells and subsequently tagged with DNA for qPCR detection. Streptavidin-coated magnetic beads were treated with biotinylated small molecule ligands for 30 minutes at room temperature to generate affinity resins for kinase assays. The liganded beads were blocked with excess biotin and washed with blocking buffer (SeaBlock (Pierce), 1% BSA, 0.05% Tween 20, 1 mM DTT) to remove unbound ligand and to reduce non-specific binding. Binding reactions were assembled by combining kinases, liganded affinity beads, and test compounds in 1×binding buffer (20% SeaBlock, 0.17×PBS, 0.05% Tween 20, 6 mM DTT). Test compounds were prepared as 111X stocks in 100% DMSO. Kd values were determined using an 11-point 3-fold compound dilution series with three DMSO control points. All compounds for Kd measurements are distributed by acoustic transfer (non-contact dispensing) in 100% DMSO. The compounds were then diluted directly into the assays such that the final concentration of DMSO was 0.9%. All reactions performed in polypropylene 384-well plate. Each was a final volume of 0.02 mL. The assay plates were incubated at room temperature with shaking for 1 hour and the affinity beads were washed with wash buffer (1×PBS, 0.05% Tween 20). The beads were then re-suspended in elution buffer (1×PBS, 0.05% Tween 20, 0.5 μM nonbiotinylated affinity ligand) and incubated at room temperature with shaking for 30 minutes. The kinase concentration in the eluates was measured by qPCR.

In the next assay the target is BTK (Homo sapiens (Human), UniProt Q06187). Put plainly: KdELECT assay for binding affinity to BTK. The gist of the method:
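Competition binding of test compound against bead-immobilized biotinylated ligand; kinase as T7 phage fusion or HEK-293-expressed DNA-tagged protein. 11-point 3-fold dilution, 0.9% DMSO final, 1 h room temperature with shaking. Bound kinase eluted with 0.5 μM non-biotinylated ligand and quantified by qPCR; Kd derived.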

The test system of a further assay is HeLa cells. The experiment in a line: Cellular growth inhibition assay (CellTiter-Glo), HeLa cells. It is filed as cell-based. The following applies: HeLa cells, three days of compound treatment, CellTiter-Glo 2.0, read-out: CTG HELA GI50. The gist of the method:
(§2)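 HeLa or HEK293 cells in DMEM with 10% FBS exposed to titrated compound for three days at 37 °C, 5% CO2, 24 h after seeding. Viability by CellTiter-Glo 2.0 luminescence, normalized to DMSO Day 0 and Day 3 readings; four-parameter fit gives GI50.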

Another assay deals with HEK293 cells. The experiment in a line: Cellular growth inhibition assay (CellTiter-Glo), HEK293 cells. The format is cell-based. The following applies: HEK293 cells, three days of compound treatment, CellTiter-Glo 2.0, read-out: CTG HEK293 GI50. In short, it runs like this:
as §2

Another assay has as its target CDK9 (Homo sapiens (Human), UniProt P50750). The experiment in a line: KdELECT assay for binding affinity to CDK9. As to the method: as §1, with “KdELECT.” for “KdELECT assay.”

BTK, sequence (Q06187 whole entry, the tested form may be a part): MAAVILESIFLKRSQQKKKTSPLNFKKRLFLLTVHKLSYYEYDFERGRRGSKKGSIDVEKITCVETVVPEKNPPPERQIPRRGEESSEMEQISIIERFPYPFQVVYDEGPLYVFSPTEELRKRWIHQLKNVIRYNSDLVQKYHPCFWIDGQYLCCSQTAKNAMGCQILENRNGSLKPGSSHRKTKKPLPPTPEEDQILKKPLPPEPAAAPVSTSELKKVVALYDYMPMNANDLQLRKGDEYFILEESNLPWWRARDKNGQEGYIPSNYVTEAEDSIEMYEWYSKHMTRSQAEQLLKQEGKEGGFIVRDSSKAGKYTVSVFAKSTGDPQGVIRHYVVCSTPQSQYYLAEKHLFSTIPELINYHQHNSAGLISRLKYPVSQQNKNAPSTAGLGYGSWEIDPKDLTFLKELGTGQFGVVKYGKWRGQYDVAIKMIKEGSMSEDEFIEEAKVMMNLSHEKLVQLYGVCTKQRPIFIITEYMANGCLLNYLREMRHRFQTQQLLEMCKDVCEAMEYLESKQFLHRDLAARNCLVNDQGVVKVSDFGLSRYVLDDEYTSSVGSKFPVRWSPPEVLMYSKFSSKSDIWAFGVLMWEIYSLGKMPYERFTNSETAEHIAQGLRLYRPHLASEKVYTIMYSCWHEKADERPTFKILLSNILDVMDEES
CDK9, sequence (P50750 whole entry): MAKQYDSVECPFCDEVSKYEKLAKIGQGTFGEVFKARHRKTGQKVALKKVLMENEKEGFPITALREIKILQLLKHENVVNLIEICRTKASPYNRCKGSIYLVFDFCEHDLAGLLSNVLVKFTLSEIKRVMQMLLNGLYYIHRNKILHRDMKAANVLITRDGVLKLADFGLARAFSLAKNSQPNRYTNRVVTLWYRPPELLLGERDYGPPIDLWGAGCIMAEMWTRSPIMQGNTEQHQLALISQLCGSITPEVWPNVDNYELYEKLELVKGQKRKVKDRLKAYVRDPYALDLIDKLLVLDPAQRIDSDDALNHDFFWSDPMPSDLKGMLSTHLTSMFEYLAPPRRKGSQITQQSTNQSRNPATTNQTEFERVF

In general, Kd refers to the equilibrium constant for the complex coming apart. The compound `Nc1nc2cc(-c3nn(CCCCC(=O)NCCCCCCCC/C=C/C(=O)N4CCC[C@@H](n5nc(-c6ccc(Oc7ccccc7)cc6)c6c(N)ncnc65)C4)c4ncnc(N)c34)ccc2o1` [Compound I-2, 5-[4-amino-3-(2-amino-1,3-benzoxazol-5-yl)pyrazolo[3,4-d]pyrimidin-1-yl]-N—[(E)-11-[(3R)-3-[4-amino-3-(4-phenoxyphenyl)pyrazolo[3,4-d]pyrimidin-1-yl]-1-piperidyl]-11-oxo-undec-9-enyl]pentanamide] returned a Kd at mTOR of 500 to 2500 nM.
Regarding `C[C@@H]1COCCN1c1nc(N2CCOC[C@H]2C)c2ccc(-c3cccc(C(=O)NCCOCCOCCOCCOC/C=C/C(=O)N4CCC[C@@H](n5nc(-c6ccc(Oc7ccccc7)cc6)c6c(N)ncnc65)C4)c3)nc2n1` [Compound I-3, N-[2-[2-[2-[2-[(E)-4-[(3R)-3-[4-amino-3-(4-phenoxyphenyl)pyrazolo[3,4-d]pyrimidin-1-yl]-1-piperidyl]-4-oxo-but-2-enoxy]ethoxy]ethoxy]ethoxy]ethyl]-3-[2,4-bis[(3R)-3-methylmorpholin-4-yl]pyrido[2,3-d]pyrimidin-7-yl]benzamide], the Kd at BTK and at mTOR was 50 to 500 nM throughout.
Regarding `C[C@@H]1COCCN1c1nc(N2CCOC[C@H]2C)c2ccc(-c3cccc(C(=O)NCCOCCOCCOCCOCCOCCOCCOCCOC/C=C/C(=O)N4CCC[C@@H](n5nc(-c6ccc(Oc7ccccc7)cc6)c6c(N)ncnc65)C4)c3)nc2n1` [Compound I-5, N-[2-[2-[2-[2-[2-[2-[2-[2-[(E)-4-[(3R)-3-[4-amino-3-(4-phenoxyphenyl)pyrazolo[3,4-d]pyrimidin-1-yl]-1-piperidyl]-4-oxo-but-2-enoxy]ethoxy]ethoxy]ethoxy]ethoxy]ethoxy]ethoxy]ethoxy]ethyl]-3-[2,4-bis[(3R)-3-methylmorpholin-4-yl]pyrido[2,3-d]pyrimidin-7-yl]benzamide], the Kd was below 50 nM on BTK and 50 to 500 nM at mTOR.
As to `C[C@@H]1COCCN1c1nc(N2CCOC[C@H]2C)c2ccc(-c3cccc(C(=O)NCCCCCCCC/C=C/C(=O)N4CCC[C@@H](n5nc(-c6ccc(Oc7ccccc7)cc6)c6c(N)ncnc65)C4)c3)nc2n1` [Compound I-7, N—[(E)-11-[(3R)-3-[4-amino-3-(4-phenoxyphenyl)pyrazolo[3,4-d]pyrimidin-1-yl]-1-piperidyl]-11-oxo-undec-9-enyl]-3-[2,4-bis[(3R)-3-methylmorpholin-4-yl]pyrido[2,3-d]pyrimidin-7-yl]benzamide], the Kd at BTK and at mTOR was 50 to 500 nM each time.
Take `C[C@@H]1COCCN1c1nc(N2CCOC[C@H]2C)c2ccc(-c3cccc(C(=O)NCCOCCOCCOCCOCCOCCOCCOCCOCCOc4ccc(C(=O)N[C@H]5C(C)(C)[C@H](Oc6ccc(C#N)c(Cl)c6)C5(C)C)cc4)c3)nc2n1` [Compound I-9, N-[2-[2-[2-[2-[2-[2-[2-[2-[2-[4-[[3-(3-chloro-4-cyano-phenoxy)-2,2,4,4-tetramethyl-cyclobutyl]carbamoyl]phenoxy]ethoxy]ethoxy]ethoxy]ethoxy]ethoxy]ethoxy]ethoxy]ethoxy]ethyl]-3-[2-[(3R)-3-methylmorpholin-4-yl]-4-(3-methylmorpholin-4-yl)pyrido[2,3-d]pyrimidin-7-yl]benzamide]: the Kd on mTOR was below 50 nM.
Still for that read-out and setting: the result for `C[C@@H]1COCCN1c1nc(N2CCOC[C@H]2C)c2ccc(-c3cccc(C(=O)NCCOCCOCCOCCOCCOc4ccc(C(=O)NC5C(C)(C)C(Oc6ccc(C#N)c(Cl)c6)C5(C)C)cc4)c3)nc2n1` (stereo partly shown) [Compound I-10] reads 50 to 500 nM.
One may read the GI50 as the concentration giving 50% growth inhibition. On to `CCc1cnn2c(NCc3ccc(OCCOCCOCCOC4CCN(C/C=C/C(=O)N5CCC[C@@H](n6nc(-c7ccc(Oc8ccccc8)cc7)c7c(N)ncnc76)C5)CC4)nc3)cc(N3CCCC[C@H]3CCO)nc12` [Compound I-70, (E)-1-((R)-3-(4-amino-3-(4-phenoxyphenyl)-1H-pyrazolo[3,4-d]pyrimidin-1-yl)piperidin-1-yl)-4-(4-(2-(2-(2-((5-(((3-ethyl-5-((S)-2-(2-hydroxyethyl)piperidin-1-yl)pyrazolo[1,5-a]pyrimidin-7-yl)amino)methyl)pyridin-2-yl)oxy)ethoxy)ethoxy)ethoxy)piperidin-1-yl) but-2-en-1-one], for which the GI50 in the assay with HeLa cells (Homo sapiens, 72 h) is below 500 nM; with HEK293 cells (Homo sapiens, 72 h) it was 500 to 1500 nM. Moreover, the Kd was below 50 nM on BTK and 50 to 500 nM at CDK9.
With `Cc1c(NC(=O)c2ccc(C3CC3)cc2F)cc(F)cc1-c1ncnc(N)c1OCCN(C)C(=O)/C=C/CN(C)CCCN1CCN(CCCNS(=O)(=O)c2ccc(Nc3ncc(Br)c(Nc4cccc(F)c4C(N)=O)n3)cc2)CC1` [Compound I-79, 2-[[2-[4-[3-[4-[3-[[(E)-4-[2-[4-amino-6-[3-[(4-cyclopropyl-2-fluoro-benzoyl)amino]-5-fluoro-2-methyl-phenyl]pyrimidin-5-yl]oxyethyl-methyl-amino]-4-oxo-but-2-enyl]-methyl-amino]propyl]piperazin-1-yl]propylsulfamoyl]anilino]-5-bromo-pyrimidin-4-yl]amino]-6-fluoro-benzamide], the 50% growth inhibitory concentration (GI50) is 1500 to 5000 nM with HeLa cells (Homo sapiens, 72 h) and above 5000 nM in the assay with HEK293 cells (Homo sapiens, 72 h). Also, the dissociation constant (Kd) on BTK was below 50 nM; at CDK9, 50 to 500 nM.
For the compound `CCc1cnn2c(NCc3ccc(OCCCN4CCN(CCCN(C)C/C=C/C(=O)N(C)CCOc5c(N)ncnc5-c5cc(F)cc(NC(=O)c6ccc(C7CC7)cc6F)c5C)CC4)nc3)cc(N3CCCC[C@H]3CCO)nc12` [Compound I-81, N-[3-[6-amino-5-[2-[[(E)-4-[3-[4-[3-[5-[[[3-ethyl-5-[(2S)-2-(2-hydroxyethyl)-1-piperidyl]pyrazolo[1,5-a]pyrimidin-7-yl]aminomethyl]-2-pyridyl]oxy]propyl]piperazin-1-yl]propyl-methyl-amino]but-2-enoyl]-methyl-amino]ethoxy]pyrimidin-4-yl]-5-fluoro-2-methyl-phenyl]-4-cyclopropyl-2-fluoro-benzamide], the 50% growth inhibitory concentration (GI50) with HeLa cells and in the assay with HEK293 cells was below 500 nM in each case. Besides, the Kd at BTK and on CDK9 was below 50 nM each time.
As for `CCc1cnn2c(NCc3ccc(OCCOCCOCCOC4CCN(C/C=C/C(=O)N(C)CCOc5c(N)ncnc5-c5cc(F)cc(NC(=O)c6ccc(C7CC7)cc6F)c5C)CC4)nc3)cc(N3CCCC[C@H]3CCO)nc12` [Compound I-82, (S,E)-N-(3-(6-amino-5-(2-(4-(4-(2-(2-(2-((5-(((3-ethyl-5-(2-(2-hydroxyethyl)piperidin-1-yl)pyrazolo[1,5-a]pyrimidin-7-yl)amino)methyl)pyridin-2-yl)oxy)ethoxy)ethoxy)ethoxy)piperidin-1-yl)-N-methylbut-2-enamido)ethoxy)pyrimidin-4-yl)-5-fluoro-2-methylphenyl)-4-cyclopropyl-2-fluorobenzamide], the concentration for 50% growth inhibition (GI50) in the assay with HeLa cells (Homo sapiens, 72 h) lay in the range of 500 to 1500 nM; in the assay with HEK293 cells (Homo sapiens, 72 h), 1500 to 5000 nM. In addition, the Kd on BTK was 50 to 500 nM; at CDK9, below 50 nM.
